Source: PMC3047451 (Journal of medicinal chemistry, 2011)
“Also recorded” adds a separate entry of the source. Read-outs that look alike come from different tables or passages of the source.

Assays:
[1] = target: T1, cloned human μ-opioid receptor (Homo sapiens, UniProt P35372); assay: biochemical
δ-opioid receptor = δ-opioid receptor (Homo sapiens, UniProt P41143); assay: biochemical; type: binding
μ-opioid receptor [2] = target: T2, μ-opioid receptor (Homo sapiens, UniProt P35372); assay: biochemical
[3] = target: T1, cloned human μ-opioid receptor; conditions: for fold more potent than naloxone as μ-antagonist: [35S]GTP-γ-S functional binding assay; for μ-antagonist potency compared with naloxone or naltrexone (in words): [35S]GTP-γ-S assay; for Ke: shift of DAMGO dose-response curve by test agent, hMOR-CHO membranes, ± SD
κ-opioid receptor = κ-opioid receptor (Homo sapiens, UniProt P41145); assay: biochemical; type: binding
[4] = target: T1, cloned human μ-opioid receptor; conditions: full inverse agonist curve; cited from earlier work
μ-opioid receptor [5] = target: T2, μ-opioid receptor; conditions: for Ki: read-out: Ki, μ
[6] = target: T1, cloned human μ-opioid receptor; conditions: 10 μM, non-dependent hMOR cells
[7] = read-out: Ki, δ, 125I-IOXY, hDOR-CHO, n = 3 (± SD)

T1 sequence (P35372 whole entry): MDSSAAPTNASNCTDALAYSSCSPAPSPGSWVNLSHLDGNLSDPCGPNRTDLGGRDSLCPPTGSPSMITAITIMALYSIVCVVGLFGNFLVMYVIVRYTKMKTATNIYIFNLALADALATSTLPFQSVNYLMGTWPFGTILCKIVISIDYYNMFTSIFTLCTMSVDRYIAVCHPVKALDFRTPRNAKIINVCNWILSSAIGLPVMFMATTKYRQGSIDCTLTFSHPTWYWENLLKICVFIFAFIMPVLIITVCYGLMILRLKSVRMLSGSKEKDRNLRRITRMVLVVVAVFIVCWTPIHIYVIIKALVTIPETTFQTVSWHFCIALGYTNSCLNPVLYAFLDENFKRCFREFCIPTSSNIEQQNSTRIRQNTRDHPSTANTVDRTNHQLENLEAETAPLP
T2 sequence (P35372 whole entry): as above
Sequence of κ-opioid receptor (P41145 whole entry): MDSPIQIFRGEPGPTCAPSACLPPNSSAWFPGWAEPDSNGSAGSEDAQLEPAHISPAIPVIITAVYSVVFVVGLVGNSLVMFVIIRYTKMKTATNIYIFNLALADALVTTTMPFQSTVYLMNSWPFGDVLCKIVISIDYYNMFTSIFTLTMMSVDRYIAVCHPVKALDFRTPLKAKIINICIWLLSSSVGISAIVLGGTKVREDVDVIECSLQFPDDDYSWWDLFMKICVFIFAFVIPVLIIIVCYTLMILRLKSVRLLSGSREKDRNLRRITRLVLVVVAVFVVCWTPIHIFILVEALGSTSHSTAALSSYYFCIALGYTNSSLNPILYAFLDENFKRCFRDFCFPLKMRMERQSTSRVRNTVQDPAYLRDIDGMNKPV
Sequence of δ-opioid receptor (P41143 whole entry): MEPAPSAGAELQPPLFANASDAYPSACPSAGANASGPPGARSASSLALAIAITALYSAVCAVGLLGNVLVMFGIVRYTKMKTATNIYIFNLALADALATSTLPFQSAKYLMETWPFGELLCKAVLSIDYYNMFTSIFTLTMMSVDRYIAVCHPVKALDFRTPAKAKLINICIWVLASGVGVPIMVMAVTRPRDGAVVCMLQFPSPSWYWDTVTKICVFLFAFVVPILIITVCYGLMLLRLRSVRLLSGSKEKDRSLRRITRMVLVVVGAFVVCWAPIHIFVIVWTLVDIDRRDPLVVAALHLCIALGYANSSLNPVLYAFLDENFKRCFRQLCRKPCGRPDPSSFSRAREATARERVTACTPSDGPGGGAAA

Row | SMILES | Kb [1] [nM] | Ki (δ-opioid receptor) [nM] | Ki (μ-opioid receptor [2]) [nM] | fold more potent than naloxone as μ-antagonist [3] [fold] | Ki (κ-opioid receptor) [nM] | μ-antagonist potency compared with naloxone or naltrexone (in words) [3] | inverse agonist activity at non-dependent μ-opioid receptors [4] | Ki (μ-opioid receptor [5]) [nM] | Ki (δ-opioid receptor; [7]) [nM] | Ke [3] [nM] | Ki (κ-opioid receptor; read-out: Ki, κ) [nM] | fold difference in μ Ki between the cis stereoisomers (μ-opioid receptor [5]) [fold] | inverse agonist activity (effect on [35S]GTP-γ-S binding) [6]
1 | Oc1cccc([C@@]23CCC[C@@H](C2)N(CC=Cc2ccccc2)CC3)c1 [(+)−6, 3-((1S,5R)-2-Cinnamyl-2-azabicyclo[3.3.1]nonan-5-yl)phenol] | 0.58 ± 0.07 | 138 ± 5 | 2 ± 0.13 | 4 | 125 ± 3 | – | – | – | – | – | – | – | –
2 | Oc1cccc([C@@]23CCC[C@@H](C2)N(C/C=C\c2ccccc2)CC3)c1 [(+)−9, 3-((1S,5R)-2-((Z)-3-phenylallyl)-2-azabicyclo[3.3.1]nonan-5-yl)phenol] | 3.1 ± 0.7 | 454 ± 25 | 26 ± 2 | – | 123 ± 4 | about as potent as naloxone | inverse agonist | – | – | – | – | – | –
3 | Oc1cccc([C@]23CCC[C@H](C2)N(C[C@H]2C[C@@H]2c2ccccc2)CC3)c1 [(+)−29, 3-((1R,5S)-2-(((1’S,2’S)-2-Phenylcyclopropyl)methyl)-2-azabicyclo[3.3.1]nonan-5-yl)phenol] | – | – | – | – | – | – | – | 3 ± 0.26 | 165 ± 7 | 0.17 ± 0.02 | 72 ± 4 | – | –
4 | Oc1cccc([C@@]23CCC[C@@H](C2)N(C[C@H]2C[C@@H]2c2ccccc2)CC3)c1 [(+)−30, 3-((1S,5R)-2-(((1’S,2’S)-2-Phenylcyclopropyl)methyl)-2-azabicyclo[3.3.1]nonan-5-yl)phenol] | – | – | – | – | – | equipotent with naloxone; also recorded: about as potent as naloxone | – | 16 ± 1 | 183 ± 7 | 2.2 ± 0.4 | 323 ± 15 | – | –
5 | Oc1cccc([C@]23CCC[C@H](C2)N(C[C@H]2C[C@H]2c2ccccc2)CC3)c1 [(+)−31, 3-((1R,5S)-2-(((1’S,2’R)-2-Phenylcyclopropyl)methyl)-2-azabicyclo[3.3.1]nonan-5-yl)phenol] | – | – | – | – | – | – | – | 459 ± 14 | 1980 ± 54 | 33 ± 7 | 475 ± 33 | ~42 | –
6 | Oc1cccc([C@@]23CCC[C@@H](C2)N(C[C@H]2C[C@H]2c2ccccc2)CC3)c1 [(+)−32, 3-((1S,5R)-2-(((1’S,2’R)-2-Phenylcyclopropyl)methyl)-2-azabicyclo[3.3.1]nonan-5-yl)phenol] | – | – | – | – | – | – | – | 76 ± 0.3 | 547 ± 23 | 18 ± 6 | 174 ± 12 | – | –
7 | Oc1cccc([C@]23CCC[C@H](C2)N(CC=Cc2ccccc2)CC3)c1 [(−)−6, 3-((1R,5S)-2-Cinnamyl-2-azabicyclo[3.3.1]nonan-5-yl)phenol] | 6.6 ± 0.7 | 152 ± 5 | 6 ± 0.39 | – | 225 ± 7 | four fold less active as opioid antagonists | – | – | – | – | – | – | little or no activity as an inverse agonist; also recorded: did not act as inverse agonists
8 | Oc1cccc([C@]23CCC[C@H](C2)N(C/C=C\c2ccccc2)CC3)c1 [(−)−9, 3-((1R,5S)-2-((Z)-3-phenylallyl)-2-azabicyclo[3.3.1]nonan-5-yl)phenol] | 7.7 ± 1.6 | 359 ± 18 | 14 ± 0.7 | – | 367 ± 18 | – | – | – | – | – | – | – | –
9 | Oc1cccc([C@@]23CCC[C@@H](C2)N(C[C@@H]2C[C@H]2c2ccccc2)CC3)c1 [(−)−29, 3-((1S,5R)-2-(((1’R,2’R)-2-Phenylcyclopropyl)methyl)-2-azabicyclo[3.3.1]nonan-5-yl)phenol] | – | – | – | – | – | – | – | 47 ± 3 | 800 ± 29 | 9.4 ± 1.5 | 390 ± 16 | – | –
10 | Oc1cccc([C@]23CCC[C@H](C2)N(C[C@@H]2C[C@H]2c2ccccc2)CC3)c1 [(−)−30, 3-((1R,5S)-2-(((1’R,2’R)-2-Phenylcyclopropyl)methyl)-2-azabicyclo[3.3.1]nonan-5-yl)phenol] | – | – | – | 7 | – | about equipotent with naltrexone | – | 4 ± 0.27 | 200 ± 10 | 0.31 ± 0.06 | 210 ± 13 | – | –
11 | Oc1cccc([C@@]23CCC[C@@H](C2)N(C[C@@H]2C[C@@H]2c2ccccc2)CC3)c1 [(−)−31, 3-((1S,5R)-2-(((1’R,2’S)-2-Phenylcyclopropyl)methyl)-2-azabicyclo[3.3.1]nonan-5-yl)phenol] | – | – | – | – | – | – | – | 265 ± 17 | 610 ± 25 | 8.6 ± 1.9 | 153 ± 7 | – | –
12 | Oc1cccc([C@]23CCC[C@H](C2)N(C[C@@H]2C[C@@H]2c2ccccc2)CC3)c1 [(−)−32, 3-((1R,5S)-2-(((1’R,2’S)-2-Phenylcyclopropyl)methyl)-2-azabicyclo[3.3.1]nonan-5-yl)phenol] | – | – | – | – | – | four fold less active as opioid antagonists | – | 11 ± 0.9 | 196 ± 6 | 8.2 ± 1.8 | 322 ± 22 | – | did not act as inverse agonists
